Laboratory results published in patent US8211883B2, “Topical delivery of phthalocyanines” (priority 2004, dated 2012).

How the values were obtained:
[1] = system: Mouse lymphoma L5178y-R cells; assay: Clonogenic cell survival of PDT-treated LY-R cells; format: cell-based; details: 0.5 μM; for activity relative to PcXII: from LD50/LD90 fluences
Experimental: Mouse lymphoma L5178y-R (hereinafter also referred to as “LY-R”) cells were grown in suspension culture as described in Ramakrishnan N., Oleinick, N. L. Clay, M. E., Homg, M. F., Antunez, A. R., and Evans H. H., Photochem. Photobiol. 50, 373-378, 1989 and Agarwal, M. L., Clay, M. E., Harvey, E. J., Evans, H. H., Antunez, A. R., and Oleinick, N. L., Cancer Res., 51, 5993-5996, 1991.
The cells were used while in exponential growth. Stock solutions of either 0.5 or 1 mM of PcIV, PcXII, PcX, PcXVIII were prepared in dimethylformamide unless otherwise indicated and added to the 10 mL medium at a rate of 1 μL per mL. After allowing 18 hours for uptake of the phthalocyanine into the cells, the flasks containing the cultures were placed on a glass exposure tray above a 500-W tungsten-halogen lamp. The exposure tray was fitted with a 600-nm high-pass filter. Flasks were exposed to various fluences of red light (up to 30 kJ/m^2) at a fluence rate of approximately 74 W/m^2). After irradiation, the cells were collected by centrifugation.
For measurement of clonogenic cell survival, aliquots were plated in medium containing soft agar as described in Ramakrishnan N., Oleinick, N. L. Clay, M. E., Homg, M. F., Antunez, A. R., and Evans H. H., Photochem. Photobiol. 50, 373-378, 1989. The aliquots were plated in sufficient numbers to produce 50-200 colonies. The dishes were kept in an incubator at 37° C. in an atmosphere of 5% CO2 and 95% air for 10-14 days to allow viable cells to form colonies. Colonies were counted by eye. Controls treated with the phthalocyanine alone had plating efficiencies of about […]. The plating efficiencies of the treated cells are normalized to the plating efficiencies of control cells in each experiment. For measurement of the induction of apoptosis, DNA was isolated from the treated and control cells 2 hours after photodynamic therapy, subjected to electrophoresis on 1.5% agarose, stained with ethidium bromide, and visualized by UV transillumination, as described in Agarwal et al. The results are shown in Tables 4, 5 and 6 and in FIG. 3.

[2] = system: Chinese hamster V79-379 lung fibroblasts; assay: Clonogenic cell survival of V79 cells after photodynamic treatment; format: cell-based; details: for LD 90 (light dosage that kills 90% of cells): 18 hours, 675 nm red light; for CF10(AIPcCI)/CF10 (Pc): CF10 = product of intracellular concentration and fluence reducing survival to 10%; for F10(AIPcCI)/F10 (Pc): F10 = fluence reducing cell survival to 10%
Outline: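 V79 cells exposed to 0.5 or 1.0 μM phthalocyanine, then irradiated about 18 h later with increasing fluences of broad-band red light (600 nm high-pass filter). Survival scored as colonies of ≥50 cells. F10 taken from survival curves; CF10 from survival against intracellular concentration × fluence; 1 μM AlPcCl run as reference.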

L5178Y cells = assay: Induction of apoptosis (DNA ladder) in L5178Y cells after PDT; format: cell-based, Mouse; details: for C × F Ld90, Minimum Demonstrated Condition to Induce Apoptosis: product of concentration and fluence
Experimental: The aliquots were plated in sufficient numbers to produce 50-200 colonies. The dishes were kept in an incubator at 37° C. in an atmosphere of 5% CO2 and 95% air for 10-14 days to allow viable cells to form colonies. Colonies were counted by eye. […] The plating efficiencies of the treated cells are normalized to the plating efficiencies of control cells in each experiment.
Cells were treated with various concentrations of the compounds listed in the table and various light fluences. DNA gels were prepared and examined for the characteristic “ladder” pattern of DNA fragments. For each Pc, the minimum total PDT dose tested (calculated as the product of the minimum phthalocyanine concentration and the minimum fluence) which produced visible DNA fragments is recorded. […] PcXVIII was also added at 0.5 and 1.0 μM.

[3] = 0.5 μM, VII# preplated data only, XXI* not totally soluble at 0.5 mM

SMILES | Ld50 (fluence that reduces cell survival to 50%) [1] [kJ/m^2] | Ld90 (fluence that reduces cell survival to 10%) [1] [kJ/m^2] | activity relative to PcXII [1] | normalized plating efficiency, AVG. ([1]; light dose 0 kJ/m^2) | normalized plating efficiency, AVG. ([1]; light dose 1 kJ/m^2) | normalized plating efficiency, AVG. ([1]; light dose 2 kJ/m^2) | normalized plating efficiency, AVG. ([1]; light dose 2.5 kJ/m^2) | normalized plating efficiency, AVG. ([1]; light dose 3 kJ/m^2) | normalized plating efficiency, AVG. ([1]; light dose 5 kJ/m^2) | LD 90 (light dosage that kills 90% of cells) [2, 3] [kj/m^2] | Fluence, Minimum Demonstrated Condition to Induce Apoptosis (L5178Y cells; 0.4 μM) [kJ/m^2] | C × F Ld90, Minimum Demonstrated Condition to Induce Apoptosis (L5178Y cells; 0.4 μM) [kJ/m^2] | normalized plating efficiency, AVG. ([1]; light dose 4 kJ/m^2) | other results
CN(C)CCC[Si](C)(C)O[Si]1(O)n2c3c4ccccc4c2N=C2N=C(N=c4c5ccccc5c(n41)=NC1=NC(=N3)c3ccccc31)c1ccccc12 (centres unmarked) [Compound IV, HOSiPcOSi(CH3)2(CH2)3N(CH3)2] | 1.38 | 2.15 | about 80% | 100 | 80.9 | 19.7 | 0.82 | 0.16 | 0.014 | 4 | 3.0 | 1.2 |  | CF10(AIPcCI)/CF10 (Pc) ([2]; 0.5 μM): 3.9; F10(AIPcCI)/F10 (Pc) ([2]; 0.5 μM): 1.85; CF10(AIPcCI)/CF10 (Pc) ([2]; 1.0 μM): 3.5; F10(AIPcCI)/F10 (Pc) ([2]; 1.0 μM): 4.25
CN(C)CCC[Si](C)(C)O[Si]1(O[Si](C)(C)CCCN(C)C)n2c3c4ccccc4c2N=C2N=C(N=c4c5ccccc5c(n41)=NC1=NC(=N3)c3ccccc31)c1ccccc12 [Compound XII, SiPc[OSi(CH3)2(CH2)3N(CH3)2]2] | 1.11 | 1.70 |  | 100 | 82.2 | 5.23 | 0.90 | 0.15 | 0.0027 | 3.3 | 3.0 | 1.2 | 0.014 | 
CCN(CCC[Si](C)(C)O[Si]1(O[Si](C)(C)CCCN(CC)CCN(C)C)n2c3c4ccccc4c2N=C2N=C(N=c4c5ccccc5c(n41)=NC1=NC(=N3)c3ccccc31)c1ccccc12)CCN(C)C [Compound XVIII, SiPc[OSi(CH3)2(CH2)3N(CH2CH3)(CH2)2N(CH3)2]2] | 5.00 | 7.81 | 22% | 100 |  | 81.8 |  | 73.6 | 52.1 |  |  |  | 64.0 | normalized plating efficiency, AVG. ([1]; light dose 6 kJ/m^2): 33.8; normalized plating efficiency, AVG. ([1]; light dose 8 kJ/m^2): 9.13; normalized plating efficiency, AVG. ([1]; light dose 10 kJ/m^2): 3.0; LD 90 (light dosage that kills 90% of cells) ([2]; 1 μM): 7 kj/m^2; Fluence, Minimum Demonstrated Condition to Induce Apoptosis (L5178Y cells; 0.5 μM): 10.0 kJ/m^2; C × F Ld90, Minimum Demonstrated Condition to Induce Apoptosis (L5178Y cells; 0.5 μM): 5.0 kJ/m^2; Fluence, Minimum Demonstrated Condition to Induce Apoptosis (L5178Y cells; 1.0 μM): 3.0 kJ/m^2; C × F Ld90, Minimum Demonstrated Condition to Induce Apoptosis (L5178Y cells; 1.0 μM): 3.0 kJ/m^2
